Patent publication US20100267561A1, “HERBICIDAL PYRIDAZINONE DERIVATIVES” (priority 2007, published 2010)

Columns and labels:
Format in all cases: in vivo
[1] = test system: barnyardgrass (Echinochloa crus-galli); assay: Test A pre-/postemergence plant response
In short: (§1)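 Seeds in loam soil/sand blend treated preemergence by directed soil spray, with simultaneous postemergence spray on 2–10 cm plants at one- to two-leaf stage; compounds in non-phytotoxic solvent with surfactant. Injury visually rated versus untreated controls after about 10 days in greenhouse, 0 (no effect) to 100 (complete control).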

corn (Zea mays) = assay: Test A pre-/postemergence plant response
In short: as §1

[2] = test system: giant foxtail (Setaria faberi); assay: Test A pre-/postemergence plant response
In short: as §1

[3] = test system: large crabgrass (Digitaria sanguinalis); assay: Test A pre-/postemergence plant response
In short: as §1

[4] = test system: pigweed (Amaranthus retroflexus); assay: Test A pre-/postemergence plant response
In short: as §1

[5] = test system: wheat (Triticum aestivum); assay: Test A pre-/postemergence plant response
In short: as §1

[6] = test system: surinam grass (Brachiaria decumbens); assay: Test B pre-/postemergence plant response
Excerpt: Seeds of plant species selected from blackgrass (Alopecurus myosuroides), downy bromegrass (Bromus tectorum), green foxtail (Setaria viridis), Italian ryegrass (Lolium multiflorum), wheat (Triticum aestivum), wild oat (Avena fatua), catchweed bedstraw (Galium aparine), bermudagrass (Cynodon dactylon), surinam grass (Brachiaria decumbens), cocklebur (Xanthium strumarium), corn (Zea mays), large crabgrass (Digitaria sanguinalis), woolly cupgrass (Eriochloa villosa), giant foxtail (Setaria faberii), goosegrass (Eleusine indica), johnsongrass (Sorghum halepense), kochia (Kochia scoparia), lambsquarters (Chenopodium album), morningglory (Ipomoea coccinea), eastern black (E.B.) nightshade (Solanum ptycanthum), yellow nutsedge (Cyperus esculentus), pigweed (Amaranthus retroflexus), common ragweed (Ambrosia elation), Russian thistle (Salsola iberica), soybean (Glycine max), common (oilseed) sunflower (Helianthus annuus), and velvetleaf (Abutilon theophrasti) were planted and treated preemergence with test chemicals formulated in a non-phytotoxic solvent mixture which included a surfactant.
(§2) At the same time, plants selected from these crop and weed species and also winter barley (Hordeum vulgare), canarygrass (Phalaris minor), chickweed (Stellaria media) and windgrass (Apera spica-venti) were treated with postemergence applications of some of the test chemicals formulated in the same manner. Plants ranged in height from 2 to 18 cm (1- to 4-leaf stage) for postemergence treatments.
(§3) Plant species in the flooded paddy test consisted of rice (Oryza sativa), umbrella sedge (Cyperus difformis), ducksalad (Heteranthera limosa) and barnyardgrass (Echinochloa crus-galli) grown to the 2-leaf stage for testing. At time of treatment, test pots were flooded to 3 cm above the soil surface, treated by application of test compounds directly to the paddy water, and then maintained at that water depth for the duration of the test. Treated plants and controls were maintained in a greenhouse for 13 to 15 days, after which time all species were compared to controls and visually evaluated. Plant response ratings, summarized in Table B, are based on a scale of 0 to 100 where 0 is no effect and 100 is complete control. A dash (-) response means no test result.

[7] = test system: canarygrass (Phalaris minor); assay: Test B postemergence plant response; settings: for Canarygrass plant response rating: 8 g ai/ha, postemergence, 0-100 scale; for Plant response rating, Canarygrass: Postemergence
Experimental: as §2, §3

[8] = test system: chickweed (Stellaria media); assay: Test B postemergence plant response; settings: for Chickweed plant response rating: 8 g ai/ha, postemergence, 0-100 scale; for Plant response rating, Chickweed: Postemergence
Experimental: as §2, §3

[9] = test system: windgrass (Apera spica-venti); assay: Test B postemergence plant response; settings: for Windgrass plant response rating: postemergence, 0-100 scale; for Plant response rating, Windgrass: Postemergence
Experimental: as §2, §3

[10] = test system: winter barley (Hordeum vulgare); assay: Test B postemergence plant response; settings: for Barley plant response rating: 8 g ai/ha, postemergence, 0-100 scale; for Plant response rating, Barley: Postemergence, scale 0 to 100, 0 no effect, 100 complete control
Experimental: as §2, §3

[11] = Postemergence, 31 g ai/ha, 0 to 100 scale (0 no effect, 100 complete control)
[12] = Postemergence, 125 g ai/ha, 0 to 100 scale, 0 no effect, 100 complete control
[13] = Preemergence, 31 g ai/ha, 0 to 100 scale, 0 is no effect, 100 is complete control
[14] = Preemergence, 125 g ai/ha, 0 to 100 scale (0 no effect, 100 complete control)
[15] = 8 g ai/ha, postemergence, 0-100 scale
[16] = 16 g ai/ha, postemergence, 0-100 scale
[17] = Postemergence, 31 g ai/ha, scale 0 to 100
[18] = Postemergence, 62 g ai/ha, scale 0 to 100, 0 no effect, 100 complete control
[19] = 62 g ai/ha, scale 0 to 100, 0 no effect, 100 complete control

Compound: COCc1cc(-c2ccc(Br)cc2)nn1-c1c(O)cnn(C)c1=O [Compound 68]
- Plant response rating, Barnyardgrass [1, 11]: 10
- Plant response rating, Barnyardgrass [1, 12]: 100
- Plant response rating, Barnyardgrass [1, 13]: 0
- Plant response rating, Barnyardgrass [1, 14]: 90
- Plant response rating, Corn (corn (Zea mays); [11]): 0
- Plant response rating, Corn (corn (Zea mays); [12]): 50
- Plant response rating, Corn (corn (Zea mays); [13]): 0
- Plant response rating, Corn (corn (Zea mays); [14]): 0
- Plant response rating, Foxtail, Giant [2, 11]: 50
- Plant response rating, Foxtail, Giant [2, 12]: 90
- Plant response rating, Foxtail, Giant [2, 13]: 10
- Plant response rating, Foxtail, Giant [2, 14]: 100
- Plant response rating, Crabgrass, Large [3, 11]: 10
- Plant response rating, Crabgrass, Large [3, 12]: 10
- Plant response rating, Crabgrass, Large [3, 13]: 0
- Plant response rating, Crabgrass, Large [3, 14]: 10
- Plant response rating, Pigweed [4, 11]: 0
- Plant response rating, Pigweed [4, 12]: 0
- Plant response rating, Pigweed [4, 13]: 0
- Plant response rating, Pigweed [4, 14]: 0
- Plant response rating, Wheat [5, 11]: 0
- Plant response rating, Wheat [5, 12]: 0
- Plant response rating, Wheat [5, 13]: 0
- Surinam Grass plant response rating [6, 15]: 35
- Surinam Grass plant response rating [6, 16]: 35
- Plant response rating, Surinam Grass [6, 17]: 80
- Plant response rating, Surinam Grass [6, 18]: 80
- Canarygrass plant response rating [7]: 0
- Plant response rating, Canarygrass ([7]; 16 g ai/ha, scale 0 to 100): 0
- Plant response rating, Canarygrass ([7]; 31 g ai/ha, scale 0 to 100): 0
- Plant response rating, Canarygrass [7, 19]: 10
- Chickweed plant response rating [8]: 0
- Plant response rating, Chickweed ([8]; 16 g ai/ha, scale 0 to 100): 0
- Plant response rating, Chickweed ([8]; 31 g ai/ha, scale 0 to 100): 0
- Plant response rating, Chickweed [8, 19]: 0
- Windgrass plant response rating ([9]; 8 g ai/ha): 0
- Windgrass plant response rating ([9]; 16 g ai/ha): 0
- Plant response rating, Windgrass ([9]; 31 g ai/ha, scale 0 to 100): 0
- Plant response rating, Windgrass [9, 19]: 35
- Barley plant response rating [10]: 0
- Plant response rating, Barley ([10]; 16 g ai/ha): 0
- Plant response rating, Barley ([10]; 31 g ai/ha): 0
- Plant response rating, Barley ([10]; 62 g ai/ha): 0

Compound: Cc1cc(-c2ccc(Cl)cc2)nn1-c1c(OC(=S)N(C)C)cnn(C)c1=O [Compound 69]
- Plant response rating, Barnyardgrass [1, 11]: 90
- Plant response rating, Barnyardgrass [1, 12]: 100
- Plant response rating, Barnyardgrass [1, 13]: 20
- Plant response rating, Barnyardgrass [1, 14]: 70
- Plant response rating, Corn (corn (Zea mays); [11]): 60
- Plant response rating, Corn (corn (Zea mays); [12]): 90
- Plant response rating, Corn (corn (Zea mays); [13]): 20
- Plant response rating, Corn (corn (Zea mays); [14]): 30
- Plant response rating, Foxtail, Giant [2, 11]: 90
- Plant response rating, Foxtail, Giant [2, 12]: 100
- Plant response rating, Foxtail, Giant [2, 13]: 20
- Plant response rating, Foxtail, Giant [2, 14]: 90
- Plant response rating, Crabgrass, Large [3, 11]: 40
- Plant response rating, Crabgrass, Large [3, 12]: 80
- Plant response rating, Crabgrass, Large [3, 13]: 0
- Plant response rating, Crabgrass, Large [3, 14]: 90
- Plant response rating, Pigweed [4, 11]: 0
- Plant response rating, Pigweed [4, 12]: 0
- Plant response rating, Pigweed [4, 13]: 0
- Plant response rating, Pigweed [4, 14]: 0
- Plant response rating, Wheat [5, 11]: 0
- Plant response rating, Wheat [5, 12]: 30
- Plant response rating, Wheat [5, 13]: 0
- Plant response rating, Wheat [5, 14]: 0
- Surinam Grass plant response rating [6, 15]: 65
- Surinam Grass plant response rating [6, 16]: 75
- Plant response rating, Surinam Grass [6, 17]: 80
- Plant response rating, Surinam Grass [6, 18]: 95
- Plant response rating, Surinam Grass ([6]; Preemergence, 31 g ai/ha, scale 0 to 100 (0 no effect, 100 complete control)): 15
- Plant response rating, Surinam Grass ([6]; Preemergence, 62 g ai/ha, 0 to 100 scale, 0 no effect, 100 complete control): 35
- Surinam Grass plant response rating ([6]; Preemergence, 8 g ai/ha, scale 0 to 100): 0
- Surinam Grass plant response rating ([6]; Preemergence, 16 g ai/ha, scale 0 to 100): 0
- Canarygrass plant response rating [7]: 0
- Plant response rating, Canarygrass ([7]; 16 g ai/ha, scale 0 to 100): 0
- Plant response rating, Canarygrass ([7]; 31 g ai/ha, scale 0 to 100): 0
- Plant response rating, Canarygrass [7, 19]: 0
- Chickweed plant response rating [8]: 0
- Plant response rating, Chickweed ([8]; 16 g ai/ha, scale 0 to 100): 0
- Plant response rating, Chickweed ([8]; 31 g ai/ha, scale 0 to 100): 0
- Plant response rating, Chickweed [8, 19]: 0
- Windgrass plant response rating ([9]; 8 g ai/ha): 0
- Windgrass plant response rating ([9]; 16 g ai/ha): 0
- Plant response rating, Windgrass ([9]; 31 g ai/ha, scale 0 to 100): 10
- Plant response rating, Windgrass [9, 19]: 40
- Barley plant response rating [10]: 0
- Plant response rating, Barley ([10]; 16 g ai/ha): 0
- Plant response rating, Barley ([10]; 31 g ai/ha): 0
- Plant response rating, Barley ([10]; 62 g ai/ha): 0
